Measurements: patent US10028956B2, “Methods of treating various cancers using an AXL/cMET inhibitor in combination with other agents” (Ignyta, Inc., priority 2013, dated 2018)

Experiments:
AXL = target: T1, AXL (Homo sapiens, UniProt P30530); assay: Inhibition of AXL phosphorylation in NCI-H1299 NSCL xenografts (PK/PD); assay type: in vivo, mice; set-up: endogenous in cells; host or cells: NCI-H1299 human NSCLC cells (culture; subcutaneous xenograft in mice)
T1 sequence (P30530 26-894): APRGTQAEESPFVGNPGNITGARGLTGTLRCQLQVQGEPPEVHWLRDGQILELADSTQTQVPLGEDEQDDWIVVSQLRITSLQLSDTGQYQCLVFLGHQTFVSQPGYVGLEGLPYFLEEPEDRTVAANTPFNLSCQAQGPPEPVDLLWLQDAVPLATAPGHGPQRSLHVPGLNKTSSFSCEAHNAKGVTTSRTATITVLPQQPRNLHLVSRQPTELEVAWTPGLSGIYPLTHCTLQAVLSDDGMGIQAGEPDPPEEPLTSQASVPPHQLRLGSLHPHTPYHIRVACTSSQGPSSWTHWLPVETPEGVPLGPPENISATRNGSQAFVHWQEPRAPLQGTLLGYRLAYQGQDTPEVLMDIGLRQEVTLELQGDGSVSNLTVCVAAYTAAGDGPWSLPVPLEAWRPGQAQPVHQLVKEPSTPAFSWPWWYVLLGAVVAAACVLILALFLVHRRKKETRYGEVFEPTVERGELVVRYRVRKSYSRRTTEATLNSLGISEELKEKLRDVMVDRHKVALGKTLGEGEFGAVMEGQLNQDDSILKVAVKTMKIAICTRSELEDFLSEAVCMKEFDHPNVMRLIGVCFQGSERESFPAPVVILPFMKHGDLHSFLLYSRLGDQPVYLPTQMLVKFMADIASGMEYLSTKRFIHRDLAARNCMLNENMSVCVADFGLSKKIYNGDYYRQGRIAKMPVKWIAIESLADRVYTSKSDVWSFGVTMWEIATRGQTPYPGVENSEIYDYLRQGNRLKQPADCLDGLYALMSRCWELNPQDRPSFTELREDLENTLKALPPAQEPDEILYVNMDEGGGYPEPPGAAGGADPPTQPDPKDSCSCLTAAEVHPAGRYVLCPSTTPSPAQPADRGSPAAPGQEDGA
Source text: Female Nu/Nu mice (6-8 weeks, Charles River Laboratory, Wilmington, Mass.) were maintained 5/cage in microisolator units on a standard laboratory diet (Teklad Labchow, Harlan Teklad, Madison, Wis.). Animals were housed under humidity- and temperature-controlled conditions and the light/dark cycle was set at 12-hour intervals. Mice were quarantined at least 1 week prior to experimental manipulation. Experiments were approved (Protocol 03-023) by the Institutional Animal Care and Use Committee of Teva Pharmaceuticals Inc
Briefly, NCI-H1299 NSCL cells (for AXL studies) or GTL-16 gastric carcinoma cells (for c-Met studies) were collected and resuspended in DMEM medium at density of 5×10^7/mL and an aliquot (100 μL) of the cell suspension (5×10^6 cells) was inoculated subcutaneously to the left flank of each mouse with a 23 g needle. […] At indicated time points post dosing, the mice (3 mice at each time point) were sacrificed by decapitation and blood was collected in 1.5 mL microcentrifuge tubes containing 20 μL of heparin sodium (10,000 unit/mL in H2O, Cat^#0210193191, MP Biomedical, Solon, Ohio) and left on ice briefly. The tubes were centrifuged at 20,817×g (Eppendorf Centrifuge 5417R with a FA45-30-11 rotor) for 8 minutes at 4° C. and the plasma was collected and transferred to 1.5 mL microfuge tubes, which were then stored at −80° C. The tumors were excised and weighed, cut into small pieces with a scalpel and placed into a round-bottom 14 mL tube (Cat^#352059, Becton Dickinson, Franklin, N.J.) on ice. Two volumes of FRAK lysis buffer without detergent [10 mM Tris, pH 7.5, 50 mM sodium chloride, 20 mM sodium fluoride, 2 mM sodium pyrophosphate, 0.1% BSA, plus freshly prepared 1 mM activated sodium vanadate, 4 mM DTT, 1 mM PMSF and the protease inhibitor cocktail III (1:100 dilution, Cat^#539134, Calbiochem, La Jolla, Calif.)] were added to 1 volume of tumor (eg, 500 μL FRAK lysis buffer were added to 250 mg tissue). […] The compound levels in both plasma and tumor lysates were measured by LC-MS/MS. […]

c-Met = c-Met (Homo sapiens, UniProt P08581); assay: Cellular c-Met inhibition in GTL-16 cells; assay type: cell-based; set-up: endogenous in cells; host or cells: GTL-16 human gastric carcinoma cells
Sequence of c-Met (P08581 25-1390): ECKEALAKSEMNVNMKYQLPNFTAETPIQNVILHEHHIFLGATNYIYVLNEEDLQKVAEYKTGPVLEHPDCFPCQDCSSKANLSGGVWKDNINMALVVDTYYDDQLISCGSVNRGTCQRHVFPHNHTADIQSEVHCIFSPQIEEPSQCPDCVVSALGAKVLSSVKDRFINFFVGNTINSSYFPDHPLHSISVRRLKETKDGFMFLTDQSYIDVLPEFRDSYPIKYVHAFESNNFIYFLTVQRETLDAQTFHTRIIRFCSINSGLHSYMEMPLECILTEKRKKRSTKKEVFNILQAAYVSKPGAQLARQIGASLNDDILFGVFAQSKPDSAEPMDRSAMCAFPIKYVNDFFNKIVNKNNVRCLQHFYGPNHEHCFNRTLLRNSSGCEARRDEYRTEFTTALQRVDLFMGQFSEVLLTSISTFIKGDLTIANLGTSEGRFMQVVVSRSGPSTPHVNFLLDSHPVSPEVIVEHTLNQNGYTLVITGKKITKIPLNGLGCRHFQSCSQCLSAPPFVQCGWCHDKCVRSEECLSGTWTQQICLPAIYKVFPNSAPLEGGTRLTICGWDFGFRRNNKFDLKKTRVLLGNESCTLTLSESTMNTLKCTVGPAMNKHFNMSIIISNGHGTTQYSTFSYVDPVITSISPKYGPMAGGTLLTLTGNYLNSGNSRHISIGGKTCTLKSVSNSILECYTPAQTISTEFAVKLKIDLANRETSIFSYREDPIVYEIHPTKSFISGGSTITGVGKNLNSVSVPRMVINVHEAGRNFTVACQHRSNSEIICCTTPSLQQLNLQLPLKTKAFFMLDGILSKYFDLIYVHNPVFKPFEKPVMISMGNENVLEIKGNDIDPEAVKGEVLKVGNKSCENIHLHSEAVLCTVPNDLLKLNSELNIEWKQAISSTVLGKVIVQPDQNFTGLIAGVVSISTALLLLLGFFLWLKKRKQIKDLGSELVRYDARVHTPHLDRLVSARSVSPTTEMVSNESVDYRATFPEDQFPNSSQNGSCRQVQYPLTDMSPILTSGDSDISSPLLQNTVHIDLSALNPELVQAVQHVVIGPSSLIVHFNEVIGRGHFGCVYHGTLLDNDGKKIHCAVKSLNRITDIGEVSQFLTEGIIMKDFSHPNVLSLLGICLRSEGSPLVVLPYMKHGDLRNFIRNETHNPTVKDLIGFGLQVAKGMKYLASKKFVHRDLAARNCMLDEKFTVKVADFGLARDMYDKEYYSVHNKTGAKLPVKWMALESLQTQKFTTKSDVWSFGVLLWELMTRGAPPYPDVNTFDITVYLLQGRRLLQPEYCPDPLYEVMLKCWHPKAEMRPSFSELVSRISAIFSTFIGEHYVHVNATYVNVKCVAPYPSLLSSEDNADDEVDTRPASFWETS

## COc1cc2nccc(Oc3ccc(NC(=O)c4cn(C(C)C)c(=O)n(-c5ccc(F)cc5)c4=O)cc3F)c2cc1OC [CEP-40783, 3-(4-Fluorophenyl)-1-isopropyl-2,4-dioxo-1,2,3,4-tetrahydropyrimidine-5-carboxylic acid [4-(6,7-dimethoxyquinolin-4-yloxy)-3-fluorophenyl]-amide]
AXL; 0.3 mg/kg, 6 h post dose
  inhibition of AXL phosphorylation (target inhibition): ~80%
AXL; 1 mg/kg, between 6-24 h
  inhibition of AXL phosphorylation (target inhibition): > 90%
AXL; 10 mg/kg po, up to 48 h post dosing
  inhibition of AXL phosphorylation: complete AXL inhibition
c-Met
  IC50: 6 nM
